Data published in patent publication US6410557B1, “Dry skin remedies” (Daiichi Pharmaceutical Col, Ltd., priority 1999, dated 2002).
Where two headings read alike, the source gives them in different places.

Assays:
Rat Foot Skin = test: Promoting action on the secretion of sweat in rat foot skin (starch-iodine reaction); format: in vivo
Protocol: A pharmacological activity test was carried out using 6 male Wister rats (body weight 199-238 g) in one group. After fasting for 1 day, rats were anesthetized by 50 mg/kg of sodium pentobarbital which was intraperitoneally administered, and an endotracheal tube was inserted to maintain the airway.
The soles of the right and left feet were cleaned with 70% ethanol, then 95% ethanol containing 2% of iodine was applied and allowed to dry. Castor oil containing 50% corn starch was coated to the soles of both feet, 5 minutes later a solvent alone or 1,3,10, and 30 mg/kg of cis-2-methylspiro(1,3-oxathiolane-5,3′)quinuclidine hydrochloride were administered intravenously.

Humans = system: Humans
Protocol: A multi-facility double blind comparison study was carried out for examination of perspiration promoting action on human, by preparing capsules containing 30 or 60 mg of cis-2-methylspiro(1,3-oxathiolane-5,3′)quinuclidine hydrochloride. 75 Americans (69 White, 1 Black, and 5 Hispanic subjects) were divided into 3 groups randomly. Each group received either one placebo capsule (0 mg), one 30 mg capsule, or one 60 mg capsule orally administered three times a day for 6 weeks. The increase of perspiration in each group was tested.

[1] = 30 mg capsule orally × 3/day for 6 weeks, 25 subjects
[2] = 60 mg capsule orally × 3/day for 6 weeks, 27 subjects

## CC1OC2(CS1)CN1CCC2CC1.Cl (stereo not drawn) [cis-2-methylspiro(1,3-oxathiolane-5,3′)quinuclidine hydrochloride]
Rat Foot Skin; anesthetized male Wister rats, 1, 3, 10 and 30 mg/kg intravenously, FIG. 1
  sweat secretion on the soles of both feet (number of colored points, degree of perspiration): promoted depending on the dose level
Humans; [1]
  Number of Subjects Showing perspiration: 4
  Number of Subjects Showing perspiration (%): 16.0%
Humans; [2]
  Number of Subjects Showing perspiration: 13
  Number of Subjects Showing perspiration (%): 48.1%
Humans; capsules, oral, three times a day for 6 weeks
  sweat secretion of human: remarkably promoted

## CN1[C@@H]2CC[C@H]1C[C@@H](OC(=O)C(CO)c1ccccc1)C2 (stereo partly shown) [atropine, reference compound]
Rat Foot Skin; rat soles of feet
  effect on the sweat secretion promoting activity of the quinuclidine hydrochloride: blocks this activity
